This is an account of results in article PMC10547211, “Neuronal expression in Drosophila of an evolutionarily conserved metallophosphodiesterase reveals pleiotropic roles in longevity and odorant response” (PLOS Genetics, 2023).

The target in the assay is T1, dMpped (Drosophila melanogaster, UniProt Q9VT29).
T1 construct: gene Mpped; full-length coding region (300 residues) amplified from whole-fly cDNA; E. coli BL21DE3; gel filtration; about 37 kDa on gel
The assay can be described thus: colorimetric p-nitrophenol release, […] nm. Format: biochemical. Particulars: Mn2+ as metal cofactor (5 mM in standard assay); pH 9.0 triple buffer; 5 mM 2-mercaptoethanol; 10 mM NaCl.

T1 sequence (Q9VT29 entry or part of it): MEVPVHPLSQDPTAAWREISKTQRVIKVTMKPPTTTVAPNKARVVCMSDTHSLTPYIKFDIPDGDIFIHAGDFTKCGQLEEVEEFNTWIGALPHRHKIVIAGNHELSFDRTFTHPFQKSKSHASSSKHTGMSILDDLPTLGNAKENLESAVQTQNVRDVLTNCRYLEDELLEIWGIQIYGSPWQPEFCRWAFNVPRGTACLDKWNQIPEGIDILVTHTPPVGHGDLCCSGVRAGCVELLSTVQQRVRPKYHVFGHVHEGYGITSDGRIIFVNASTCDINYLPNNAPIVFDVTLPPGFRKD

`O=[N+]([O-])c1ccc(OP(=O)(O)c2ccccc2)cc1` [pNPPP]: the Km was roughly 10 mM.

The Km is the substrate concentration at which the rate is half of its maximum.
